Source: EP4744665A1, “COMBINATION OF POLQ INHIBITOR COMPOUND AND ANTI-CANCER THERAPEUTIC AGENT OR RADIOTHERAPY” (Simcere Zaiming Pharmaceutical Co., Ltd., priority 2023, dated 2025)

Tests used:
Assay in all cases: Combined use with combination drug, matrix study, Bliss Independence model (Cell Titer Glo, 7 days)
Format in all cases: cell-based
OVCAR3 = system: OVCAR3
Protocol: (§1) DLD-1 colorectal adenocarcinoma cells, DLD-1 BRCA2 (-/-) colorectal adenocarcinoma cells, SHP-77 human small cell lung cancer cells, NCI-H82 human small cell lung cancer cells, LNCAP prostate cancer cells, KURAMOCHI human ovarian cancer cells, A2780 human ovarian cancer cells, and NCI-H23 non-small cell lung cancer cells were cultured in a 1640 medium containing 10% fetal bovine serum. SKOV3 human ovarian cancer cells were cultured in a McCoy's 5A (modified) medium containing 10% fetal bovine serum. OVCAR3 ovarian cancer cells were cultured in a 1640 medium containing 20% fetal bovine serum and 10 µg/mL bovine insulin. MDA-MB-436 breast cancer cells (natural BRCA1 mutation) and A549 non-small cell lung cancer cells were cultured in a DMEM medium containing 10% fetal bovine serum. Capan-1 human pancreatic cancer cells (natural BRCA2 mutation) were cultured in an IMDM medium containing 20% fetal bovine serum. The cells were all cultured at 37 °C with 5% CO2. Cells at the logarithmic growth phase were available for the experiment.
(§2) 100 µL of the cell medium was added to rows A and H and columns 1 and 12 of a 96-well cell culture plate. Cultured cells were resuspended (adherent cells were digested with trypsin) and counted to give information on cell density and viability. The dilution ratio of the resuspended cells required for inoculating a fixed number of cells into 80 µL of the medium in each culture well was calculated based on the cell density information. After the resuspended cells were diluted with the corresponding medium, 80 µL of the diluted cells were transferred to columns 2-11 of rows B-G of a 96-well cell culture plate using an Eppendorf multi-channel pipette (60 wells in total for each plate). The cell culture plate was incubated overnight in an incubator at 37 °C with 5% CO2.
(§3) The test compound and the combination compound were dissolved in DMSO to give a 10 mM solution for later use. In the experiment, the compound was further diluted to the corresponding concentration according to the concentration designed in the experiment, and based on this concentration, serial gradient dilution was performed. Matrix study was performed at 8 or 7 dose concentrations of the test compound (the lowest dose concentration was 0, and other specific concentration values were shown in FIG. 1) and 7 or 8 dose concentrations of the combination compound (the lowest dose concentration was 0, and other specific concentration values were shown in FIG. 1). 10 µL of each of the diluted combination compound and test compound was added to the corresponding cell plate well, such that the final concentration of DMSO was 0.25%. The test compound and the cells were incubated in an incubator at 37 °C with 5% CO2 for another 7 days, Cell Titer Glo was added at 50 µL/well, and the luminescence value of each well was read using an Envision microplate reader.
(§4) The luminescence value of the well containing only the cell medium was taken as the background (RLUbackground, corresponding cell survival rate to be 0%), the cell well containing only 0.25% DMSO without the compound was taken as the maximum signal (RLUDMSO, corresponding cell survival rate to be 100%), and the luminescence values of the remaining wells containing cells and compounds at different concentrations were taken as RLUsample. The survival rate of each cell well was calculated as follows: Survival rate (%) = (RLUsample−RLUbackground)/(RLUDMSO−RLUbackground) × 100% [formula]
(§5) The interaction between drugs (synergistic, independent, or antagonistic) was statistically analyzed by the Bliss Independence model using Combenefit software (Bliss, C.I., Bacteriol. Rev., 1956, 20, 243-258). The model assumes that each drug acts independently. The theoretical expected action curve of the combination was calculated from the following equation: Bliss effect = effect A + effect B−effect A × effect B [formula] wherein effect A and effect B are the effects of drugs A and B alone at specific concentrations. […]

NCIH23 = system: NCIH23
Protocol: as §1, §2, §3, §4, §5

MDA-MB-436 = system: MDA-MB-436
Protocol: as §1, §2, §3, §4, §5

[1] = combination with Niraparib (PARP inhibitor)
[2] = combination with Olaparib (PARP inhibitor)
[3] = combination with Talazoparib (PARP inhibitor)

Measured: Combined effect

COc1ccc(Cl)cc1-c1cc(C)ncc1C(=O)Nc1nc2ncc(-c3ccc(C#N)cc3)nc2s1.[Na] [Sodium salt of compound I, Sodium Salt of 4-(5-Chloro-2-methoxyphenyl)-N-[6-(4-cyanophenyl)thiazolo[4,5-b]pyrazin-2-yl]-6-methylnicotinamide]
Synergistic: OVCAR3; combination with Carboplatin (Platinum derivative) | OVCAR3; [1] | OVCAR3; [2] | OVCAR3; [3] | NCIH23; combination with RP3500 (ATR inhibitor) | NCIH23; [3] | MDA-MB-436; combination with AZD5305 (PARP inhibitor) | MDA-MB-436; combination with AZD7648 (DNA-PK inhibitor) | MDA-MB-436; [1] | MDA-MB-436; [2]
